Substitutions are numbered along the chain they refer to.
Assays:
[1] = target: T1, 5-HT3A receptor N138A mutant (Homo sapiens, UniProt P46098, N133A); experiment: two-electrode voltage clamp, N138A mutant receptor in Xenopus oocytes; format: cell-based; details: 100 µM chanoclavine, read-out: Inhibition Percentage (%)
T1 construct: host or cells: Xenopus laevis oocytes injected with in vitro transcribed mRNA
T1 sequence (P46098 24-478 N133A): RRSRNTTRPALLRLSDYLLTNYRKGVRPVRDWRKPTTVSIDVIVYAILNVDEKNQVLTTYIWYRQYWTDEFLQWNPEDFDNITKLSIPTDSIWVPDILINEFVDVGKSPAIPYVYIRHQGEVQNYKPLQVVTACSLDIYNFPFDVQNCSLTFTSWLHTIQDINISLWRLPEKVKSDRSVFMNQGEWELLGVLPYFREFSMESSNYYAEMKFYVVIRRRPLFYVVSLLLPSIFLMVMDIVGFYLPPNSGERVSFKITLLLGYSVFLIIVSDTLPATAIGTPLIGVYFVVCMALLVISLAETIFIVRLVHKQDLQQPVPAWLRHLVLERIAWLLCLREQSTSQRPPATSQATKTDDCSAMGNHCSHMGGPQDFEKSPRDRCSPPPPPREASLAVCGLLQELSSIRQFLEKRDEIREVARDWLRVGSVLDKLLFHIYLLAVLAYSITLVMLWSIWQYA
Description: (§1) The site-directed mutation of one or two amino acids was performed using sense and antisense primers and Pfu polymerase (QuickChange Site-Directed Mutagenesis Kit; Agilent, Santa Clara, CA, USA) and amplified by polymerase chain reaction (PCR) to increase the target domain. After removing the existing methylated cDNA using Dpn Ⅰ, the PCR products were transformed into Escherichia coli strain DH5α. The cDNA of the 5-HT3A receptor was linearized by Xho Ⅰ at the end of the multi-cloning site, followed by transcription using T7 polymerase and a transcription kit (mMESSAGE mMACHINE T7 Transcription Kit; Thermo Fisher Scientific, Waltham, MA, USA). […]
(§2) To isolate oocytes, female Xenopus laevis were put into a container filled with ice and left for about one hour. […] When the Xenopus oocytes were ready for injection, 50 ng of mRNA was injected with a nanoliter injector (Drummond Scientific, Vernon Hills, IL, USA). […]
(§3) The oocytes in which mRNA was expressed during the incubation period allowed for the estimation of channel or receptor properties for observing drug and ligand potential interactions using a two-electrode voltage clamp (OC-725C; Warner Instruments, Hamden, CT, USA) and Digidata (1322A; Molecular Devices, Sunnyvale, CA, USA). […] The voltage and current electrodes were filled with 3 M KCl (0.3–0.7 MΩ) and analyzed at a −80 mV holding potential. […]

[2] = target: T2, 5-HT3A receptor F130A+N138A double mutant (Homo sapiens, UniProt P46098, F125A/N133A); experiment: two-electrode voltage clamp, F130A+N138A double mutant receptor in Xenopus oocytes; format: cell-based; details: 300 µM chanoclavine with 5-HT
T2 construct: host or cells: Xenopus laevis oocytes injected with in vitro transcribed mRNA
T2 sequence (P46098 24-478 F125A/N133A): T1 sequence (P46098 24-478 N133A) with F102A
Description: as §1, §2, §3

[3] = target: T3, 5-HT3A receptor S136A mutant (Homo sapiens, UniProt P46098, S131A); experiment: two-electrode voltage clamp, S136A mutant receptor in Xenopus oocytes; format: cell-based; details: 100 µM chanoclavine, read-out: Inhibition Percentage (%)
T3 construct: host or cells: Xenopus laevis oocytes injected with in vitro transcribed mRNA
T3 sequence (P46098 24-478 S131A): T1 sequence (P46098 24-478 N133A) with S108A, A110N
Description: as §1, §2, §3

[4] = tested on: 5-HT3A receptor I228A mutant; experiment: two-electrode voltage clamp, I228A mutant receptor in Xenopus oocytes; format: cell-based, human; details: 100 µM chanoclavine
Description: as §1, §2, §3

CN[C@@H]1Cc2c[nH]c3cccc(c23)[C@H]1/C=C(\C)CO [chanoclavine]
inhibition at 100 µM [1]: -1.64 ± 6.2% | effect on inward current [2]: not significantly decreased | inhibition at 100 µM [3]: 68.4 ± 6.1% | Inhibition Percentage (%) [4]: 66.16 ± 9.2%

From paper PMC7956620 (Molecules, 2021)
